Reference: patent US11548897B2, “Crystalline forms of a triazolopyrimidine compound” (NOVARTIS AG, priority 2016, dated 2023)

Columns and labels:
[1] = Solubility in selected solvents (Table 2); format: physicochemical; conditions: thermodynamic from solid; for solubility at 2 h: 50° C.; for solubility: rt
Experimental: To 10 mg of compound X in a sample vial at 50° C., selected solvent was added dropwise. The addition of solvent was stopped when a clear solution was reached or when the amount of solvent reached 1 mL. The resulting mixture was stirred continuously at 50° C. for 2 h, then cooled to rt, and stirred overnight. The solubilities at 50° C. and rt were determined by the homogeneity of the resulting mixture.

[2] = Rodent pharmacokinetic studies, exposure versus dose; format: in vivo; conditions: higher doses
[3] = system: H3K27 methylation in G401 cell; test: ELISA (H3K27 methylation) assay; format: cell-based; conditions: Homo sapiens, G-401; ELISA Qualified, G401 cells, 48 h; read-out: (c) IC50
Experimental: ELISA (H3K27 Methylation) Assay
Representative compounds of the present invention were serially and separately diluted 3-fold in DMSO to obtain a total of eight or twelve concentrations. Then the compounds were added to G401 cell cultured in 384-well plate at 1:500 dilution to obtain the highest concentration of 20 μM. The cells were further cultured for 48 h before ELISA procedure.
Histone extraction: Cells, in 384-well plate, were washed with PBS (10×PBS buffer (80 g NaCl (Sigma, S3014), 2 g KCl (Sigma, 60128), 14.4 g Na2HPO4 (Sigma, S5136), 2.4 g KH2PO4 (Sigma, P9791) to 1 L water, pH to 7.4) and lysed with the addition of lysis buffer (0.4N HCl; 45 μL per well). The plate was gently agitated at 4° C. for 30 min. The cell lysate was neutralized with neutralization buffer (0.5 M sodium phosphate dibasic, pH 12.5, 1 mM DTT; 36 μL per well). The plate was agitated to ensure the lysates were well mixed prior to the ELISA protocol.
ELISA protocol: Cell lysates were transferred to the wells of a 384-well plate and the final volume was adjusted to 50 μL per well with PBS. The plate was sealed, centrifuged at 2,000 rpm for 2 min and incubated at 4° C. for about 16 h. […] The signal was read using a PerkinElmer Envision Reader. The H3K27 methylation readouts were normalized using H3 signal and then percentage inhibition was calculated against the samples treated with DMSO. […]

[4] = system: B cell lymphoma cell KARPAS422; test: Analysis of cell proliferation; format: cell-based; conditions: Homo sapiens, KARPAS-422, 336 h; KARPAS422, after 14 days of treatment; read-out: antiproliferative activities (IC50 values)
Experimental: Analysis of Cell Proliferation
B cell lymphoma cell KARPAS422 was cultured using standard cell culture conditions in RPMI-1640 (Invitrogen, cat #11875) supplemented with 15% FBS (Invitrogen, cat #10099-141) in humidified incubator at 37° C., 5% CO2. To assess the effect of PRC2 inhibition on cell proliferation, exponentially growing cells were seeded at a density of 1×10^5 cells/mL in 12-well plate (Corning, cat #CLS3513). After cell seeding, a compound of the present invention was added to the cell media (in concentrations ranging from 0 to 100 μM, 3× dilution series). Viable cell numbers were determined every 3-4 days for up to 14 days using Vi-CELL (Beckman Coulter). On days of cell counting, fresh growth media and compound were replenished and cells split back to a density of 1×10^5 cells/mL. Total cell number is expressed as split-adjusted viable cells per mL. The dose response curves and IC50 values were generated using Prism.

[5] = Aqueous solubility (pH 7.4, simulated gastric fluid); format: physicochemical
[6] = Stability of solid form to humidity and temperature; format: physicochemical
Experimental: Dynamic vapor sorption was performed on a Surface Measurement Systems DVS Advantage instrument. Approximately 10 mg of material was loaded into a sample pan. The samples were exposed to sorption/desorption cycles in 10% relative humidity (RH) steps over the range of 50%-90%-0%-90%-50% RH at 25° C. and 50° C. A target equilibrium condition of mass change less than 0.002% over 5 min was set, with minimum and maximum equilibrium periods of 10 and 360 min, respectively. The carrier gas was nitrogen with a flow rate of 100 mL/min. The system is calibrated with saturated salt solutions. The weight percentage change (wt %) of the sample at each stage was measured and plotted versus the target partial pressure.

[7] = aqueous with cosolvent or surfactant or cyclodextrin, Acetone/H2O (1/1)
[8] = aqueous with cosolvent or surfactant or cyclodextrin, EtOH/H2O (1/1)
[9] = organic solvent or mixture, ACN
[10] = organic solvent or mixture, Acetone
[11] = organic solvent or mixture, EtOAc
[12] = organic solvent or mixture, EtOH
[13] = organic solvent or mixture, Heptane
[14] = organic solvent or mixture, IPA
[15] = organic solvent or mixture, MTBE
[16] = organic solvent or mixture, MeOH
[17] = organic solvent or mixture, THF

In the case of Cc1ncccc1-c1cnc(NCc2c(F)ccc3c2CCO3)n2cnnc12.Cl [Compound X, N-((5-Fluoro-2,3-dihydrobenzofuran-4-yl)methyl)-8-(2-methylpyridin-3-yl)-[1,2,4]triazolo[4,3-c]pyrimidin-5-amine hydrochloride], the solubility at 2 h [1, 7] is reported as over 50000 µg/mL, the solubility [1, 7] is reported as under 50000 µg/mL and the solubility at 2 h [1, 8] is reported as over 50000 µg/mL. The solubility [1, 8] was under 50000 µg/mL, the solubility at 2 h [1, 9] was under 10000 µg/mL and the solubility [1, 9] was under 10000 µg/mL. It also gave a solubility at 2 h [1, 10] of under 10000 µg/mL, a solubility [1, 10] of under 10000 µg/mL and a solubility at 2 h [1, 11] of under 10000 µg/mL. For the same compound, the solubility [1, 11] was under 10000 µg/mL, the solubility at 2 h [1, 12] was under 10000 µg/mL and the solubility [1, 12] was under 10000 µg/mL. It also gave a solubility at 2 h [1, 13] of under 10000 µg/mL, a solubility [1, 13] of under 10000 µg/mL and a solubility at 2 h [1, 14] of under 10000 µg/mL. For the same compound, the solubility [1, 14] was under 10000 µg/mL, the solubility at 2 h [1, 15] was under 10000 µg/mL and the solubility [1, 15] was under 10000 µg/mL. For the same compound, the solubility at 2 h [1, 16] was over 10000 µg/mL, the solubility [1, 16] was over 10000 µg/mL and the solubility at 2 h [1, 17] was under 10000 µg/mL. The solubility [1, 17] was under 10000 µg/mL, the solubility at 2 h ([1]; Water) was under 10000 µg/mL and the solubility ([1]; Water) was under 10000 µg/mL. The “exposure relative to dose” value [2] was “dose-proportional”.
Compound Cc1ncccc1-c1cnc(NCc2c(F)ccc3c2CCO3)n2cnnc12 [Compound A, N-((5-Fluoro-2,3-dihydrobenzofuran-4-yl)methyl)-8-(2-methylpyridin-3-yl)-[1,2,4]triazolo[4,3-c]pyrimidin-5-amine] has an IC50 [3] of 2.6 nM, an IC50 [4] of 3 nM and a solubility at 2 h [1, 7] of under 10000 µg/mL. For the same compound, the solubility [1, 7] was under 10000 µg/mL, the solubility at 2 h [1, 8] was under 10000 µg/mL and the solubility [1, 8] was under 10000 µg/mL. It also gave a solubility at 2 h [1, 9] of under 10000 µg/mL, a solubility [1, 9] of under 10000 µg/mL and a solubility at 2 h [1, 10] of under 10000 µg/mL. The solubility [1, 10] was under 10000 µg/mL, the solubility at 2 h [1, 11] was under 10000 µg/mL and the solubility [1, 11] was under 10000 µg/mL. The solubility at 2 h [1, 12] was under 10000 µg/mL, the solubility [1, 12] was under 10000 µg/mL and the solubility at 2 h [1, 13] was under 10000 µg/mL. For the same compound, the solubility [1, 13] was under 10000 µg/mL, the solubility at 2 h [1, 14] was under 10000 µg/mL and the solubility [1, 14] was under 10000 µg/mL. It also gave a solubility at 2 h [1, 15] of under 10000 µg/mL, a solubility [1, 15] of under 10000 µg/mL and a solubility at 2 h [1, 16] of under 10000 µg/mL. It also gave a solubility [1, 16] of under 10000 µg/mL, a solubility at 2 h [1, 17] of under 10000 µg/mL and a solubility [1, 17] of under 10000 µg/mL. For the same compound, the solubility at 2 h ([1]; Water) was under 10000 µg/mL, the solubility ([1]; Water) was under 10000 µg/mL and the aqueous solubility ([5]; physiologically relevant pH level of 7.4) was “low”. For the same compound, the aqueous solubility ([5]; simulated gastric fluid (SGF)) was “low” and the “exposure relative to dose” value [2] was “under-proportional”.
For Cc1ncccc1-c1cnc(NCc2c(F)ccc3c2CCO3)n2cnnc12.Cl [Form HA, N-((5-Fluoro-2,3-dihydrobenzofuran-4-yl)methyl)-8-(2-methylpyridin-3-yl)-[1,2,4]triazolo[4,3-c]pyrimidin-5-amine hydrochloride], the “stability to humidity and temperature” value [6] was “acceptable stability”.
